# Test results taken from patent publication US20150150261A1, “METHODS FOR APPLYING DIFORMYLUREA TO CROPS FOR GREATER PLANT PRODUCTIVITY” (Stoller Enterprises, Inc., priority 2013, published 2015).
# Entries after “also recorded” stand apart in the source; their conditions may differ.
# Legend:
# Format in all cases: in vivo
# corn plants [1] = assay: Root structure of DFU-treated vs untreated corn plants (FIG. 1); conditions: treated vs untreated corn plant
# From the text: FIG. 1 is a photograph illustrating root structure of two corn plants, one treated (on right) with DFU, the other untreated (on left); It has been discovered that application of DFU to growing crop plants results in a large increase in the functional capacity of the crop plant root system because of selective root tissue synthesis and development of fine small feeder roots that operate to take up water and minerals from the soil environment. Treatment of crop plant tissue described herein includes exogenous treatment of the crop plants with a DFU solution at a rate of between 0.1 to 10 pints/acre over the crop growth stages or as a preferred rate of 0.5 to 1.5 pints per acre. Preferably, the concentration of the DFU which is applied at the above rates is from stock solutions of 0.001 Molar to 1.0 Molar with a preferred Molarity of 0.001 Molar to 0.05 Molar. FIG. 1 is a photograph of two plants: the plant on the left had no treatment with DFU; the plant on the right hand side was treated with DFU. […] The treated plant on the right hand side of FIG. 1 is in contrast to the thicker deeper roots of the plant on the left hand side which has fewer “root tips” for water and nutrient uptake from the soil. The DFU treated plant on the right has smaller feeder roots for water, mineral, and nutrient uptake from the roots to the shoots.
# corn plant [2] = assay: Soil moisture around feeder roots of corn plants (FIGS. 2, 3); conditions: DFU-treated (FIG. 3) vs untreated (FIG. 2) corn plant
# From the text: FIG. 2 is a photograph of a root structure showing dry soil around the roots of a corn plant that has not been treated with DFU; FIG. 3 is a photograph of a root structure showing moist soil around the roots of a corn plant (grown under the same conditions as that of FIG. 2) treated with DFU; It has also been discovered that applying DFU to crop plants causes enhancement of crop plant cellular water and soil moisture around the feeder roots. Compare the feeder root system of FIG. 2 of a plant that has had no DFU applied to it with the feeder root system of FIG. 3 of a plant that has DFU applied to it.
# corn seedlings [3] = assay: Guttation on corn seedling leaves (FIG. 4); conditions: as a function of DFU amounts
# From the text: FIG. 4 illustrates the results of increased guttation on seedling leaves as a function of DFU amounts.
# corn plants [4] = assay: Survival of corn plants in a flooded field (FIGS. 5-13); conditions: corn field flooded by excessive rain; in furrow DFU
# From the text: The method of applying DFU to crop plants, which has been covered by natural rain or other types of flooding is a distinctive enhanced feature of DFU treatment of crop plants to ameliorate damaging effects of field soil excessive moisture such as flooding. The most efficacious method of DFU treatment for this feature is that of an “in furrow” application into the open soil furrow at time of crop seed sowing with a spray of DFU at a dose of one to one and a half pints per acre over the seed and unto the soil of the open furrow before closure of the open furrow and application of pressure to the closed furrow for optimal soil contact with the seed. […] DFU is preferably sprayed at a dose of 1 pint per acre to 1½ pints per acre over the seed and onto the soil of the open furrow before closure of the open furrow and application of pressure to the closed furrow for optional soil contact with the seed. FIG. 5 is a photograph of a corn field completely flooded by excessive rain. FIGS. 6 and 7 show corn plants treated with DFU after the excessive water has retreated somewhat. The corn plants are seen to be growing. […] FIG. 9 is a photograph of a corn field which has not been treated with DFU, but after flooding, has been almost completely killed because of the water. FIG. 10 is a close-up photo of corn that has been killed because of flooding. […]
# corn plant [5] = assay: Internodal stalk volume of corn plants (Table 1)
# Procedure: It has also been discovered that DFU treatment of corn plants increases the inter-nodal volume of corn plants. Table 1 below confirms that discovery where intermodal stalk volumes of untreated corn crop plants was calculated to be 311.71 cc per plant whereas the inter-nodal stalk volumes of the DFU-treated corn plant was 355.47, an increase of 14% over the control plant.
# corn seedlings [6] = assay: Sealed barrel water use test with corn seedlings (FIG. 14)
# Procedure: It has also been discovered that crops treated with DFU require less water for growing. See the results illustrated in FIG. 14. In two barrels that were sealed at the top, a precise amount of growing medium was added with appropriate fertilizer and a precise amount of water. […] Seven corn seedlings were germinated and grown in the growing medium in each of the barrels for a period of 37 days. At 37 days the fresh weight and dry weights of corn plants were determined. The graph on the right side of […] depicts the combined weight of the water and the plants growing out of the barrels. The graph on the left depicts the average amount of water needed to grow the treated vs the untreated corn, indicating a twenty eight percent savings with the DFU-treated plants contrasted to the untreated plants. The two barrels were constantly weighed electronically.
# soybean plants = assay: Soybean yield after DFU seed treatment (Table 2)
# From the text: As further evidence the increase in crop production as a result of DFU treatment see Table 2 below. Untreated soybean plant yields were 52.5 bushels per acre. The DFU treated soybean plants yielded 111 bushels per acre. This represents an increase in […] of 111 percent.
# soybean = assay: Soybean yield with DFU and Quadris fungicide (Table 3)
# From the text: Table 3 below illustrates the increased performance of herbicides and fungicides for crop plants by addition of DFU to the crops. Quadris™ fungicide (product of Syngenta Crop Protection, Inc.) was applied at the R1 stage of growth and gave a yield increase of 15 bushels per acre. DFU by itself increased soybean yields by 40 bushels per acre. DFU and Quadris applied together increased the yields by 52 bushels.
# [7] = tested on: field corn cultivar DKC 66-96; assay: Field corn yield, nitrogen fertilizer use efficiency (Table 4)
# From the text: A total of 180 lb of nitrogen fertilizer/acre, with ½ of nitrogen applied at V4 (forth leaf) and ½ at V7 (seventh leaf) as a side dress (3 inches to the side of the plant and 3 inches below the soil surface). The field corn cultivar DKC 66-96 was planted on Feb. 11, 2013 and harvested on Jul. 12, 2013.
# field corn = assay: Field corn yield, foliar DFU at V4 along with Round-Up herbicide (Table 5); design: Yield rep1 / Yield rep2 / Yield rep3 / Yield rep4: unit not given here; conditions: for Yield Bu/acre: control 209
# From the text: Table 5 below illustrates the effect of foliar application of DFU applied at V4 (4th leaf stage of crop growth) at either the rate of ½ pt/acre along with the herbicide Round-Up™ herbicides on field corn. Both the control and the treatments also had 0.9 lb of ammonium sulfate applied along with the herbicide and di-formylurea (DFU). The field corn was planted in southern Texas on Mar. 3, 2012, at a population density of 35,000 plants per acre. […] The large difference was in the harvestable yields of the di-formyl urea treated plants over the control which received the herbicide only.
# corn crop = assay: Corn crop yield with DFU combined with nitrogen fertilizer; conditions: DFU combined with nitrogen fertilizer to the soil vs nitrogen fertilizer alone
# From the text: Enhanced tissue development in DFU treated corn plants is illustrated by the experiment illustrated in FIG. 15.
# [8] = soybean, seed treatment 2 oz DFU/cwt of seed
# [9] = soybean yield, DFU 1 pt/acre, Quadris recommended rate
# [10] = field corn, seed treat 2 oz/cwt, V4 ½ pt, V9 1 pt
smiles,measurement,setting,value
"O=CNC(=O)NC=O [DFU, diformylurea]",fine small feeder root system development,corn plants [1],significantly greater fine small feeder root system development
same,soil moisture around the root system,corn plant [2],Much more moist soil
same,guttation of water on plant leaves,corn seedlings [3],increases guttation
same,survival of plants in flooded field,corn plants [4],prevents drowning of the plants; also recorded: survived the flood
same,Internodal Volume (cc),corn plant [5]; Growth Stage V1,33.49 cc
same,Internodal Volume (cc),corn plant [5]; Growth Stage V2,45.02 cc
same,Internodal Volume (cc),corn plant [5]; Growth Stage V3,55.76 cc
same,Internodal Volume (cc),corn plant [5]; Growth Stage V4,59.14 cc
same,Internodal Volume (cc),corn plant [5]; Growth Stage V5,54.34 cc
same,Internodal Volume (cc),corn plant [5]; Growth Stage V6,47.79 cc
same,Internodal Volume (cc),corn plant [5]; Growth Stage V7,35.02 cc
same,Internodal Volume (cc),corn plant [5]; Growth Stage V8,24.9 cc
same,inter-nodal stalk volumes per plant,"corn plant [5]; calculated total, untreated 311.71",355.47 cc per plant
same,increase of inter-nodal stalk volume over the control plant,corn plant [5]; vs untreated corn plant,14%
same,savings in average amount of water needed to grow corn,"corn seedlings [6]; 0.0015% solution of DFU, 37 days, vs untreated",twenty eight
same,enhanced water use efficiency,corn seedlings [6]; crop plants treated with DFU,up to 28%
same,increase in water use efficiency,soybean plants; soybean yield vs untreated 52.5 bushels per acre,111%
same,Rep 1 Yield,soybean plants; [8],109
same,Rep2 Yield,soybean plants; [8],112
same,Rep3 Yield,soybean plants; [8],111
same,Rep4 Yield,soybean plants; [8],112
same,Average Yield bu per acre,"soybean plants; soybean, seed treatment 2 oz DFU/cwt of seed, control 52.5",111 bu per acre
same,soybean plant yield,soybean plants; untreated 52.5,111 bushels per acre
same,Soybean Yield Bu/acre,"soybean; DFU @ 1 pt/acre, Quadris @ recommended rate at R1, control 55.0",95.1 Bu/acre
same,Rep 1,soybean; [9],92.7
same,Rep 2,soybean; [9],95.8
same,Rep 3,soybean; [9],89.9
same,Rep 4,soybean; [9],102
same,soybean yield increase,soybean; vs control,40 bushels per acre
same,Rep 1 Yield,[7]; [10],175.5
same,Rep2 Yield,[7]; [10],188
same,Rep3 Yield,[7]; [10],178.7
same,Rep4 Yield,[7]; [10],185.1
same,Average Yield bu per acre,"[7]; field corn, seed treat 2 oz/cwt, V4 ½ pt, V9 1 pt, 180 lb nitrogen fertilizer/acre, control 112.6",180.6 bu per acre
same,increase in efficiency of use of the available nitrogen mineral fertilizer,[7]; harvested yield vs untreated control,60.7%
same,Yield % increase,field corn; V4 foliar 1 pt/acre,21.5%
same,Yield increase bu/acre vs control,field corn; V4 foliar 1 pt/acre,45 bu/acre
same,Yield rep1,field corn; V4 foliar 1 pt/acre,246
same,Yield rep2,field corn; V4 foliar 1 pt/acre,251
same,Yield rep3,field corn; V4 foliar 1 pt/acre,256
same,Yield rep4,field corn; V4 foliar 1 pt/acre,264
same,Yield Bu/acre,field corn; V4 foliar 1 pt/acre with Round-Up and ammonium sulfate,254 Bu/acre
same,Yield % increase,field corn; V4 foliar ½ pt/acre,13.9%
same,Yield increase bu/acre vs control,field corn; V4 foliar ½ pt/acre,29 bu/acre
same,Yield rep1,field corn; V4 foliar ½ pt/acre,227
same,Yield rep2,field corn; V4 foliar ½ pt/acre,232
same,Yield rep3,field corn; V4 foliar ½ pt/acre,224
same,Yield rep4,field corn; V4 foliar ½ pt/acre,237
same,Yield Bu/acre,field corn; V4 foliar ½ pt/acre with Round-Up and ammonium sulfate,230 Bu/acre
same,yield of the corn crop,corn crop,significantly enhances yield
